Like-named read-outs stand apart in the source and are kept apart here. Each block holds one molecule with its values, some of them ahead of it.
Experiments:
[1] = Denim bleaching: laccase-mediator (100 nkat/g, 5 mg/g, 30 min, 60° C.) compared to sodium hypochlorite (15 min, 40° C.)
Method: Different types of demin were treated with a TaLcc1 laccase product from Trichoderma strain RF5597 and DeniLite II Base from Novozymes and the results obtained were compared to hypochlorite bleaching. All together 27 pieces of different kinds of denim (whole jeans), which had been previously washed with cellulase after desizing to different abrasion levels or had been only desized with ECOSTONE®A200 (60° C., 10 min), were collected for the test (Table 15). The jeans were made of Indigo dyed denim, except the English jeans contained Indigo dyed denim with sulphur bottom. Jeans were cut in such a way that pieces from the same pair of jeans could be used for all tests.
The jeans were made of Indigo dyed denim (right hand twill), except the English jeans contained Indigo dyed denim with sulphur bottom. The weights of the original (i.e. not desized) denim fabrics were typically higher than 475 g/m^2 (14 oz/yd^2). The weights of three 10 cm×10 cm pieces were measured after 24 hours incubation at room temperature (ca. 22° C. and at relative moisture ca. 64%).
The laccase treatments were performed with Electrolux's Wascator FOM 71 CLS washer extractor under optimal conditions for each enzyme, described in Table 16. Methyl syringate (Example 7) was used as a mediator. Laccase was inactivated after draining by raising the pH above 11 by NaOH (10 min, 60° C.) and rinsing for three times. The fabrics were dried in a tumbler.
The sodium hypochlorite bleaching was performed with Electrolux's Wascator FOM 71 CLS washer extractor using denim obtained from the same jeans as in laccase treatments under conditions described in Table 17. Sodium hydroxide was added before adding 25 ml/l of 10% sodium hypochlorite solution (Klorite Forte, Farmos Oy) to keep the pH above 10.5 during the treatment. After draining the bleach liquor, there was one 2 minutes rinsing step with the liquor ratio of 1:20 before dechlorinating with sodium thiosulphate. After dechlorinating the denim samples were rinsed 3 times for 2 minutes with the liquor ratio of 1:20. The fabrics were dried in a tumbler.
The bleaching effect was evaluated by measuring the colour as reflectance values as in Example 7. […] Different looks were obtained depending on the type of the denim and cellulase treatment used. “Sulphur-bottom type” denim was the most difficult to bleach.

[2] = target: T1, Melanocarpus albomyces laccase MaL (Melanocarpus albomyces, UniProt Q70KY3); test: Kinetic parameters of Melanocarpus albomyces laccase MaL (comparison); type: biochemical
T1 sequence (Q70KY3 51-609): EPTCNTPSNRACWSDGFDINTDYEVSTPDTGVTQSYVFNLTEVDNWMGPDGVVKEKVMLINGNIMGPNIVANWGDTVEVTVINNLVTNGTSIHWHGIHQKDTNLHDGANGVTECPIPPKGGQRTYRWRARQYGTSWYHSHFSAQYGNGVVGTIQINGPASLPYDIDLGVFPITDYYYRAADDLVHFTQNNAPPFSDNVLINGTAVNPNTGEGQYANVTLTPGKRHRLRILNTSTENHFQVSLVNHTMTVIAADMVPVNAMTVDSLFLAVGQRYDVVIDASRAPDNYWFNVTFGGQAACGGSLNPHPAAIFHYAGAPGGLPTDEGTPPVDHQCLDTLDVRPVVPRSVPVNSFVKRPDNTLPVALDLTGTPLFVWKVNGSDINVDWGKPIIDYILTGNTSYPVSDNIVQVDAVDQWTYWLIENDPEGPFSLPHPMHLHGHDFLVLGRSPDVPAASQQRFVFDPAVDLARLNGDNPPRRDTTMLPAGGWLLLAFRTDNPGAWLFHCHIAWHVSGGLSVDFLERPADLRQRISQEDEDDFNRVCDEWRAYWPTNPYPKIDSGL
Method: (§1) On syringaldazin and DMP 40 mM MES buffer, pH 6 and 25 mM succinate buffer. All activity assays were carried out at 25° C. Kinetic parameters were estimated by a nonlinear regression curve fit. The values were compared to those of Melanocarpus albomyces MaL, laccase.

[3] = target: T2, Thielavia arenaria ALKO4197 laccase TaLcc1, recombinant (rTaLcc1, expressed in Trichoderma reesei), SEQ ID NO: 12 (Canariomyces arenarius, UniProt F6N9E7); type: biochemical
T2 construct: predicted mature residues 22-604; no tag stated
T2 sequence (F6N9E7 with tags, fused parts or gaps): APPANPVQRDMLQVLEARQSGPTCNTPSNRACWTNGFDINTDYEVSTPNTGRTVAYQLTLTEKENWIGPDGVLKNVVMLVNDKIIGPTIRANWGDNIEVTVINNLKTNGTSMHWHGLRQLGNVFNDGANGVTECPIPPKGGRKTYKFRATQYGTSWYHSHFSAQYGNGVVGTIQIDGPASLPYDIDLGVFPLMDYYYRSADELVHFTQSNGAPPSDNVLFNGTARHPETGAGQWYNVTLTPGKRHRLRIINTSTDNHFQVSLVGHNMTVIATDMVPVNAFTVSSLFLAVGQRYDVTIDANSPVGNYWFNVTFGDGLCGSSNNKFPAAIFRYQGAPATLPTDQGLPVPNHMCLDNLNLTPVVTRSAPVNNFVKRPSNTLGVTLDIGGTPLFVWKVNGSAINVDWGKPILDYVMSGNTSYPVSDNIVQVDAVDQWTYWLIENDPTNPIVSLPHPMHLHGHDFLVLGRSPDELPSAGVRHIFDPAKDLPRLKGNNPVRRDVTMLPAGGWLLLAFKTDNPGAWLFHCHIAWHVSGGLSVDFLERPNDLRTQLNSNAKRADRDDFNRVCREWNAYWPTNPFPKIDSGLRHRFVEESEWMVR
Method: as §1

[4] = substrate: COc1cc(/C=N/N=C/c2cc(OC)c(O)c(OC)c2)cc(OC)c1O; test: purified protein, by the assay type; type: biochemical, Thielavia arenaria; details: other: syringaldazin and DMP, 40 mM MES buffer, pH 6 and 25 mM succinate buffer, 25° C.
Method: as §1

[5] = sample B1: Basic Jeans, Ecostone P1250
[6] = sample E1: English jeans (sulphur bottom), desized only
[7] = sample E2: English jeans, Ecostone NP2000
[8] = sample E3: English jeans, Rocksoft NCE-EA
[9] = sample E4: English jeans, Rocksoft NCE-2X
[10] = sample E5: English jeans, Ecostone L900
[11] = sample E6: English jeans, Ecostone L900
[12] = sample E7: English jeans, Ecostone L900
[13] = sample L1: Lee Cooper jeans, desized only
[14] = sample L2: Lee Cooper jeans, Ecostone L
[15] = sample L3: Lee Cooper jeans, Biotouch C29
[16] = sample L4: Lee Cooper jeans, Ecostone L
[17] = sample L5: Lee Cooper jeans, Indiage Max L
[18] = sample L6: Lee Cooper jeans, Indiage Super L
[19] = sample L7: Lee Cooper jeans, Ecostone CXP500 Exper.
[20] = sample L8: Lee Cooper jeans, Ecostone CXP experimental
[21] = sample L9: Lee Cooper jeans, Ecostone N400
[22] = sample T1: Tincan jeans, desized only
[23] = sample T2: Tincan jeans, Ecostone N400
[24] = sample T3: Tincan jeans, Ecostone L300
[25] = sample T4: Tincan jeans, Denimax 991S
[26] = sample W1: Warric jeans, desized only
[27] = sample W2: Warric jeans, Ecostone P4500
[28] = sample W3: Warric jeans, Indiage Max G
[29] = sample W4: Warric jeans, Ecostone NP2000
[30] = sample W5: Warric jeans, Ecostone L900
[31] = sample W6: Warric jeans, Denabraide MBL 65 E
[32] = syringaldazin and DMP, 40 mM MES buffer, pH 6 and 25 mM succinate buffer, 25° C.
[33] = ABTS, 25 mM succinate buffer, pH 4.5, 25° C.

L* after treatment [1, 5]: 40.62 | b* after treatment [1, 5]: −17.37 | L* after treatment [1, 6]: 21.91 | b* after treatment [1, 6]: −15.03 | L* after treatment [1, 7]: 33.30 | b* after treatment [1, 7]: −16.43 | Increase of L* [1, 8]: 9.40 | L* after treatment [1, 8]: 34.13 | b* after treatment [1, 8]: −16.73 | L* after treatment [1, 9]: 35.83 | b* after treatment [1, 9]: −16.86 | L* after treatment [1, 10]: 33.85 | b* after treatment [1, 10]: −16.48 | L* after treatment [1, 11]: 30.61 | b* after treatment [1, 11]: −16.65 | L* after treatment [1, 12]: 32.36 | b* after treatment [1, 12]: −16.75 | L* after treatment [1, 13]: 31.23 | b* after treatment [1, 13]: −20.83 | L* after treatment [1, 14]: 44.11 | b* after treatment [1, 14]: −18.60 | L* after treatment [1, 15]: 39.71 | b* after treatment [1, 15]: −19.67 | L* after treatment [1, 16]: 40.63 | b* after treatment [1, 16]: −19.25 | L* after treatment [1, 17]: 39.47 | b* after treatment [1, 17]: −19.48 | L* after treatment [1, 18]: 41.50 | b* after treatment [1, 18]: −18.68 | L* after treatment [1, 19]: 37.91 | b* after treatment [1, 19]: −19.85 | L* after treatment [1, 20]: 40.74 | b* after treatment [1, 20]: −19.12 | L* after treatment [1, 21]: 40.82 | b* after treatment [1, 21]: −18.82 | L* after treatment [1, 22]: 33.97 | b* after treatment [1, 22]: −17.95 | L* after treatment [1, 23]: 34.38 | b* after treatment [1, 23]: −18.22 | L* after treatment [1, 24]: 40.33 | b* after treatment [1, 24]: −18.30 | L* after treatment [1, 25]: 37.66 | b* after treatment [1, 25]: −18.58 | L* after treatment [1, 26]: 27.75 | b* after treatment [1, 26]: −18.76 | L* after treatment [1, 27]: 39.35 | b* after treatment [1, 27]: −17.39 | L* after treatment [1, 28]: 41.11 | b* after treatment [1, 28]: −16.79 | L* after treatment [1, 29]: 38.07 | b* after treatment [1, 29]: −17.33 | L* after treatment [1, 30]: 37.12 | b* after treatment [1, 30]: −18.03 | L* after treatment [1, 31]: 36.65 | b* after treatment [1, 31]: −17.95
Molecule: OCl [sodium hypochlorite, reference compound]

kcat [2, 32]: 78.5 s⁻¹
Molecule: COc1cc(/C=N/N=C/c2cc(OC)c(O)c(OC)c2)cc(OC)c1O [Syringaldazin, syringaldazine]

Molecule: COc1cccc(OC)c1O [DMP, 2,6-dimethoxy phenol]
kcat [3, 32]: 67.17 s⁻¹ | kcat [2, 32]: 69.33 s⁻¹

Molecule: CCn1c(=NN=c2sc3cc(S(=O)(=O)O)ccc3n2CC)sc2cc(S(=O)(=O)O)ccc21 [ABTS, 2,2′azinobis-3-ethylbenzthiazole-6-sulphonate]
Km [3, 33]: 75 µM | kcat [3, 33]: 68.83 s⁻¹ | kcat ([2]; pH 4.5): 78.17 s⁻¹

B1: Thielavia arenaria ALKO4197 laccase TaLcc1, recombinant (rTaLcc1, expressed in Trichoderma reesei), SEQ ID NO: 12 (Canariomyces arenarius) (protein)
chain: APPANPVQRDMLQVLEARQSGPTCNTPSNRACWTNGFDINTDYEVSTPNTGRTVAYQLTLTEKENWIGPDGVLKNVVMLVNDKIIGPTIRANWGDNIEVTVINNLKTNGTSMHWHGLRQLGNVFNDGANGVTECPIPPKGGRKTYKFRATQYGTSWYHSHFSAQYGNGVVGTIQIDGPASLPYDIDLGVFPLMDYYYRSADELVHFTQSNGAPPSDNVLFNGTARHPETGAGQWYNVTLTPGKRHRLRIINTSTDNHFQVSLVGHNMTVIATDMVPVNAFTVSSLFLAVGQRYDVTIDANSPVGNYWFNVTFGDGLCGSSNNKFPAAIFRYQGAPATLPTDQGLPVPNHMCLDNLNLTPVVTRSAPVNNFVKRPSNTLGVTLDIGGTPLFVWKVNGSAINVDWGKPILDYVMSGNTSYPVSDNIVQVDAVDQWTYWLIENDPTNPIVSLPHPMHLHGHDFLVLGRSPDELPSAGVRHIFDPAKDLPRLKGNNPVRRDVTMLPAGGWLLLAFKTDNPGAWLFHCHIAWHVSGGLSVDFLERPNDLRTQLNSNAKRADRDDFNRVCREWNAYWPTNPFPKIDSGLRHRFVEESEWMVR
notes: predicted mature residues 22-604; no tag stated
Km [4]: 4.3 µM | kcat [4]: 32.3 s⁻¹ | kcat/Km [4]: 7.52e+06 M⁻¹ s⁻¹
